# Where two headings read alike, the source gives them in different places.
# Assays:
# animal = settings: in vivo; cited from earlier work
# rats = settings: cited from earlier work
# mice = settings: cited from earlier work
# sodium channel = test: Temperature-dependent circular dichroism at 222 nM (helix-coil transition); format: biochemical, beef (bovine brain); settings: 222 nm wavelength; for % Loss of Helix (35° to 40° C.) / % Loss of Helix (30° to 35° C.): fresh AChE; for % Loss of Helix (35° to 40° C.): control 4.7 (pilocarpine), 4.6 (lidocaine); for % Loss of Helix (30° to 35° C.): control 21.8 (pilocarpine), 12.1 (lidocaine); for effect on alpha helix from 35° C. to 40° C. / effect on helical transition normally observed between 30°-35° C.: beef brain nerve cell protein preparation; for effect on helical transition normally observed between 30°-35° C.: 15° C. to 60° C.
# Text: As disclosed in PCT/US93/05792, published Jan. 6, 1994, one can identify compounds with potential analgesic effect by using circular dichroism to bioassay the interaction of molecules with ion channels, including sodium channels. Likewise, this bioassay technique is applicable to the thiophene compounds of the present invention.
# To perform this method, solubilized nerve cell membrane proteins and acetylcholinesterase are purified using ion exchange and size exclusion chromatography. Then, one forms a mixture of a nerve cell protein and a compound capable of blocking or preventing the normal function of preferably the sodium channel in an excitable cell, and subjects that mixture to circular dichroism at a wave length of […] wave length. The transition of molar ellipticity is measured while varying the temperature of the mixture between 25°-50° C. The transition of molar ellipticity of the mixture is compared with the transition of molar ellipticity of a control nerve cell protein without the compound capable of blocking or preventing the normal function of the sodium channel in an excitable cell. The alpha helix content, as measured at […], is used to monitor the effect of temperature change on the ion channel's conformational change.
# However, when a sodium channel active molecule is added to the membrane preparation, the temperature-dependent helix transition observed using circular dichroism is altered. […] These compounds, therefore, seem to stabilize the helix conformation of the sodium channel and to prevent the temperature-dependent uncoiling of alpha helix between 30° C.-35° C.
# [1] = cardiac patients, routine therapeutic administration of lidocaine; cited from earlier work
# [2] = system: Salmonella strains TA98, TA100, TA1535 and TA97; settings: cited from earlier work
# Fischer rats = settings: cited from earlier work
# B6C3FI mice = settings: cited from earlier work
# [3] = surviving female mice, relative to controls
compound,measurement,setting,value
"Cc1cccc(C)c1N [2,6-xylidine]",carcinogenicity,animal,established animal and probable human carcinogen
Cc1ccccc1N.Cl [ortho-toluidine hydrochloride],carcinogenicity,rats,carcinogenic in rats and mice
same,carcinogenicity,mice,carcinogenic in rats and mice
CCN(CC)CC(=O)Nc1c(C)cccc1C [Lidocaine],% Loss of Helix (35° to 40° C.),sodium channel,13.6%
same,% Loss of Helix (30° to 35° C.),sodium channel,1.8%
same,effect on alpha helix from 35° C. to 40° C.,sodium channel,the alpha helix uncoils to equal the helix in the control sample
same,effect on helical transition normally observed between 30°-35° C.,sodium channel,prevented the helical transition normally observed between 30°-35 °C
same,"2,6-xylidine in human serum hemoglobin adduct",[1],"high levels of 2,6-xylidine"
CC[C@@H]1C(=O)OC[C@@H]1Cc1cncn1C [Pilocarpine],% Loss of Helix (35° to 40° C.),sodium channel,17.5%
same,% Loss of Helix (30° to 35° C.),sodium channel,7.1%
same,effect on alpha helix from 35° C. to 40° C.,sodium channel,the alpha helix uncoils to equal the helix in the control sample
same,effect on helical transition normally observed between 30°-35° C.,sodium channel,prevented the helical transition normally observed between 30°-35 °C
c1ccsc1 [thiophene],mutagenicity,[2],does not function as a mutagen in this assay
same,absolute lung weight and lung to brain weight ratio,Fischer rats; all dose groups of both sexes surviving until study termination,decrease in the absolute lung weight and in the lung to brain weight ratio
same,mortality,"Fischer rats; male rats, 2000 and 4000 ppm, first week",mortality also occurred in the 2000 and 4000 ppm male exposure groups
same,group mean body weight,"Fischer rats; rats of both sexes, relative to control",dose-related depression in group mean body weight relative to control
same,clinical signs of toxicity,"Fischer rats; rats, 4000 ppm","rough haircoat, ocular discharge, nasal discharge, dyspnea, and staggering gait"
same,"microscopic examination, lung","Fischer rats; rats, 4000 ppm",chronic active inflammation of the lung
same,mortality,"Fischer rats; rats, 8000 ppm, one exposure",All rats exposed to 8000 ppm died following one exposure
same,"microscopic examination, liver","Fischer rats; rats, all exposure groups, severity increasing with dose",necrotizing inflammation of the liver in all exposure groups with severity increasing with dose
same,toxicity to liver and lung,"Fischer rats; summary of rat and mice studies, extremely high inhalation doses",shows toxicity to liver and lung
same,survival,"B6C3FI mice; female mice, 1000 ppm and 500 ppm",survived the study
same,female mice died as a result of exposures,"B6C3FI mice; female mice, 2000 ppm",2/10
same,mortality,"B6C3FI mice; female mice, 8000 ppm and 4000 ppm",Total mortality
same,survival / mortality,"B6C3FI mice; male mice, all exposure levels, single exposure",died or were terminated in moribund condition following a single exposure
same,"microscopic pathology, hepatocytes",B6C3FI mice; mice that died early (within several hours after first exposure),centrilobular degeneration of hepatocytes
same,"microscopic pathology, cause of mortality",B6C3FI mice; mice,mortality was attributed to liver toxicity
same,other exposure-related microscopic lesions,B6C3FI mice; mice,No other exposure-related microscopic lesions were found
same,"microscopic pathology, nose and nasal cavity","B6C3FI mice; mice, more severe in mice that survived the study",Necrotizing inflammation of the nose and nasal cavity
same,liver absolute and relative organ weights (liver-to-body and liver-to-brain weight ratios),B6C3FI mice; [3],increased relative to the controls
same,thymus organ weight parameters,B6C3FI mice; [3],reduced
same,mean body weights or mean lung weights,B6C3FI mice; surviving female mice,did not affect mean body weights or mean lung weights
same,signs of toxicity,"B6C3FI mice; surviving mice, 500 ppm and 1000 ppm",hypoactivity and abnormal posture
same,signs of toxicity,"B6C3FI mice; surviving mice, 2000 ppm",dyspnea
same,"microscopic pathology, hepatocytes","B6C3FI mice; surviving mice, all exposure levels",centrilobular necrosis of hepatocytes
